# Data: US20220411362A1, “DITERPENOID COMPOUNDS THAT ACT ON PROTEIN KINASE C (PKC)” (K-Gen, Inc., priority 2019, published 2022)
# Like-named read-outs stand apart in the source and are kept apart here.
# Legend:
# [1] = Pharmacokinetic study, intravenous bolus injection in rats; format: in vivo; details: Sprague Dawley; for concentration at 0.0167 hour / concentration at 0.0833 hour / concentration at 0.25 hour / concentration at 0.5 hour / concentration at 1 hour / concentration at 2 hour / concentration at 4 hour / concentration at 7 hour / concentration at 24 hour / Vd: plasma, rat; for concentration at 0.0167 hour: 0.0167 hour post dose; for concentration at 0.0167 hour / concentration at 0.0833 hour / concentration at 0.25 hour / concentration at 0.5 hour / concentration at 1 hour / concentration at 2 hour / concentration at 4 hour / concentration at 7 hour / concentration at 24 hour: read-out: Concentration in Rat Plasma after Bolus Injection, Mean; for concentration at 0.0833 hour: 0.0833 hour post dose; for concentration at 0.25 hour: 0.25 hour post dose; for concentration at 0.5 hour: 0.5 hour post dose; for concentration at 1 hour: 1 hour post dose; for concentration at 2 hour: 2 hour post dose; for concentration at 4 hour: 4 hour post dose; for concentration at 7 hour: 7 hour post dose; for concentration at 24 hour: 24 hour post dose; for AUC(0-t) / C0 / MRT inf / clearance / half-life / Vd: rat plasma; for Vd: iv
# Description: Pharmacokinetic (PK) studies were conducted for compounds described in this disclosure, and the PK study of K101-C1327 administered by intravenous injection in rats is given as an example. Briefly, K101-C1327 was dissolved in a pH 5 buffer solution at the concentrations of 2.0 mg/mL, and diluted to 0.04 and 0.08 mg/mL to achieve the doses of 0.1 and 0.2 mg/kg with a dosing volume of 2.5 mL/kg, respectively. The K101-C1327 dosing solutions were administered via intravenous bolus injection in 3 rats (Sprague Dawley). Plasma samples were taken at 1 minute, 5 minutes, 15 minutes, 30 minutes, 1 hour, 2 hours, 4 hours, 7 hours, and 24 hours. The drug concentrations at each time point were determined by LC-MS. The results of drug concentrations and pharmacokinetic parameters are presented in the Table 6 and Table 7, respectively, below.
# [2] = system: phosphorylation of PKCμ, PKCδ and Erk1/2 in A549 lung cancer cells; format: cell-based; details: 0.3 μM, 30 minutes, Western blot (FIG. 1)
smiles,measurement,setting,value
CC1=C[C@H]2[C@@]3(O)[C@H](C)C[C@]4(OC(=O)[C@@H](N)CC5CCCCC5)[C@H]([C@@H]3C=C(CO)C[C@]2(O)C1=O)C4(C)C [Compound K101-C1327],concentration at 0.0167 hour,[1]; dose 0.1 mg/kg,216 ng/mL
same,concentration at 0.0833 hour,[1]; dose 0.1 mg/kg,49.2 ng/mL
same,concentration at 0.25 hour,[1]; dose 0.1 mg/kg,28.7 ng/mL
same,concentration at 0.5 hour,[1]; dose 0.1 mg/kg,19.4 ng/mL
same,concentration at 1 hour,[1]; dose 0.1 mg/kg,14.6 ng/mL
same,concentration at 2 hour,[1]; dose 0.1 mg/kg,5 ng/mL
same,concentration at 4 hour,[1]; dose 0.1 mg/kg,1 ng/mL
same,concentration at 7 hour,[1]; dose 0.1 mg/kg,< 1 ng/mL
same,concentration at 24 hour,[1]; dose 0.1 mg/kg,< 1 ng/mL
same,concentration at 0.0167 hour,[1]; dose 0.2 mg/kg,334 ng/mL
same,concentration at 0.0833 hour,[1]; dose 0.2 mg/kg,102 ng/mL
same,concentration at 0.25 hour,[1]; dose 0.2 mg/kg,65 ng/mL
same,concentration at 0.5 hour,[1]; dose 0.2 mg/kg,43.6 ng/mL
same,concentration at 1 hour,[1]; dose 0.2 mg/kg,37.6 ng/mL
same,concentration at 2 hour,[1]; dose 0.2 mg/kg,29.1 ng/mL
same,concentration at 4 hour,[1]; dose 0.2 mg/kg,6 ng/mL
same,concentration at 7 hour,[1]; dose 0.2 mg/kg,< 1 ng/mL
same,concentration at 24 hour,[1]; dose 0.2 mg/kg,< 1 ng/mL
same,AUC(0-t),[1]; 0.1 mg/kg,48.3 ng·h/mL
same,C0,[1]; 0.1 mg/kg,314 ng/mL
same,MRT inf,[1]; 0.1 mg/kg,0.873 h
same,clearance,[1]; 0.1 mg/kg,32.9 mL/min/kg
same,half-life,[1]; 0.1 mg/kg,0.857 h
same,AUC(0-t),[1]; 0.2 mg/kg,119 ng·h/mL
same,C0,[1]; 0.2 mg/kg,450 ng/mL
same,MRT inf,[1]; 0.2 mg/kg,2.93 h
same,clearance,[1]; 0.2 mg/kg,21.5 mL/min/kg
same,half-life,[1]; 0.2 mg/kg,2.29 h
same,Vd,"[1]; 0.1 mg/kg, 0.1 mg/kg, read-out: Vss",1.73 L/kg
same,Vd,"[1]; 0.1 mg/kg, 0.1 mg/kg, read-out: Vz",2.44 L/kg
same,Vd,"[1]; 0.2 mg/kg, 0.2 mg/kg, read-out: Vss",2.77 L/kg
same,Vd,"[1]; 0.2 mg/kg, 0.2 mg/kg, read-out: Vz",3.25 L/kg
same,"phosphorylation of PKC (PKD/PKCμ), PKCδ and Erk1/2",[2],induced high levels of phosphorylation
